In patent US20070123462A1, “Effects of tissue transglutaminase on beta-amyloid-induced apoptosis” (Cornell Research Foundation, Inc., priority 2005, published 2007):

Key:
[1] = tested on: RA-differentiated SH-SY5Y cells; format: cell-based
Procedure: (§1) To induce differentiation, human SH-SY5Y cells were cultured in phenol red-free, low serum media with 20 μM all-trans-retinoic acid (RA; Sigma) every other day for 6 days. When assaying cell viability, the cells were plated in 96-well dishes at a seeding density of approximately 5×10^3 cells per well, differentiated with 20 μM RA, and then treated with either media alone, 25 μM monodansyl cadaverine (MDC), β-amyloid1-42 (2.5, 5, and 10 μM) (HPLC-purified from American Peptide, Sunnyvale, Calif.), or with 25 μM MDC and different concentrations of β-amyloid1-42. Typically, β-amyloid1-42 was reconstituted in […] and then further diluted into cell culture media, using conditions that have been reported to give rise primarily to β-amyloid oligomers and large aggregates rather than fibrils (Dahlgren et al., J. Biol. Chem. 277:32046-32053 (2002); Stine et al., J. Biol. Chem. 278:11612-11622 (2003), which are hereby incorporated by reference in their entirety). However, in some cases, β-amyloid1-42 was first dissolved in 100% hexafluoroisopropanolol to ensure the elimination of any preexisting aggregates ((Dahlgren et al., J. Biol. Chem. 277:32046-32053 (2002); Stine et al., J. Biol. Chem. 278:11612-11622 (2003), which are hereby incorporated by reference in their entirety) and then this solvent was removed by evaporation prior to reconstituting the peptide in Me2SO. Cells were incubated with the reconstituted β-amyloid1-42 for 48 hours and cell viability was then assayed by the reduction of 3-(4,5-dimethylthiazole-2-yl)-2,5-diphenyltetrazolium bromide (MTT), as previously described in Miller et al., Brain Res. 963:43-56 (2003), which is hereby incorporated by reference in its entirety. The effects of H2O2 (10-30 μM) on cell viability were assayed in a similar manner (Tamagno et al., Exp Neurol 180:144-155 (2003), which is hereby incorporated by reference in its entirety). Values for untreated controls were set at 100% viability and each treatment was assessed as a percentage of the control values (+/−SD). Each treatment was performed in triplicate and evaluated by using a one-way analysis of variation (ANOVA) with Turkey's post hoc analysis to determine differences between the groups with the a value set at 0.05.

[2] = tested on: caspase-3; test: Caspase activation immunoblot in SH-SY5Y cells; format: cell-based, human
From the text: FIGS. 6A-B depict characterization of β-amyloid1-42. […] The β-amyloid was either directly reconstituted in Me2SO or was pre-treated with hexafluoroisopropanol (HFIP) and dessicated prior to reconstitution in Me2SO. […] Activated caspase-3 was detected using a rabbit polyclonal antibody from Cell Signaling (Danvers, Mass.).
FIGS. 9A-B show changes in transglutaminase activity during β-amyloid-induced apoptosis. […] Experimental conditions in FIG. 9B were similar to those described in FIG. 9A, except cells were treated with H2O2 rather than BA for 24 hours.

[3] = tested on: TGase; test: In vivo (cellular) transamidation assay with 5-(biotin-amido)-pentylamine; format: cell-based, human
Procedure: The in vivo transamidation assays were performed as previously described in Antonyak et al., J. Biol. Chem. 279:41461-41467 (2004), which is hereby incorporated by reference in its entirety. […] The membranes were then incubated with horseradish-peroxidase-conjugated streptavidin (2 mg/ml; Pierce Inc., Rockford, Ill.) (diluted 1:2000) in BBST for 2 hours at room temperature, followed by washing (three times) for 20 minutes with BBST.

[4] = tested on: c-Jun kinase (JNK); test: c-Jun kinase (JNK) activity in β-amyloid-treated cells; format: cell-based, human; conditions: β-amyloid1-42-treated cells
[5] = target: T1, guinea pig liver TGase (Cavia cutleri, UniProt P08587); test: In vitro transamidation (cross-linking) of β-amyloid1-42 by TGase, immunoblot; format: biochemical
T1 construct: 0.1 μg of guinea pig liver TGase (Sigma); purchased Sigma; host or cells: guinea pig liver
T1 sequence (P08587 2-690): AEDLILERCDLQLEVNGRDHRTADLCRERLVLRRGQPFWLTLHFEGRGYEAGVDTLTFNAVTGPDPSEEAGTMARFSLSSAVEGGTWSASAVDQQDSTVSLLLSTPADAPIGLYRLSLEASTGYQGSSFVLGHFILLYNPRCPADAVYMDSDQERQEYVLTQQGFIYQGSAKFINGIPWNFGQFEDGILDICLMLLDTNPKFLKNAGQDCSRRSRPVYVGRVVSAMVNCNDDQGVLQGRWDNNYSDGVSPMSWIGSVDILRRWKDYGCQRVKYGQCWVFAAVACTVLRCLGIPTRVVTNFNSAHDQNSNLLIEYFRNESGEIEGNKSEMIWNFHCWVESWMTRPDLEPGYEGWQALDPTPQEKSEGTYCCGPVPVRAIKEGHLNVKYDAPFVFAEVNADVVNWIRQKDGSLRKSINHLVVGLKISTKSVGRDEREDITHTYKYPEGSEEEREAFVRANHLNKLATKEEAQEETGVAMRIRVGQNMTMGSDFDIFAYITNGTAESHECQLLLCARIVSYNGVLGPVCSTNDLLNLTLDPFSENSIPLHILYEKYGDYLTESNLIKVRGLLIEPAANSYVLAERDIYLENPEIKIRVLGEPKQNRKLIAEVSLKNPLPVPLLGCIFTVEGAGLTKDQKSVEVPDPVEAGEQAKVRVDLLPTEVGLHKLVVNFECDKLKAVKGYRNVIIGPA
Procedure: FIGS. 11A-B illustrate examination of the cross-linking of β-amyloid by TGase.
The in vitro transamidation reactions were performed with one or all of the following: 1 μg of β-amyloid1-42, 0.1 μg of guinea pig liver TGase (Sigma), 500 μM CaCl2, and/or 50 μM MDC. Each reaction was performed in 50 mM Tris-HCl, pH 7.2, and incubated for 60 minutes at 37° C. The reactions were stopped by the addition of an equal volume of 20% SDS and 10 μl of Laemmeli's sample buffer and immediately boiled for 20 minutes to break up any non-covalent aggregation of β-amyloidi1-42. SDS-PAGE was performed on the samples, followed by blotting onto nitrocellulose membranes (Amersham). The membranes were immunoblotted with anti-β-amyloid antibody.

[6] = tested on: TGase; test: TGase expression and level in SH-SY5Y cells and cell fractions (immunoblot); format: cell-based, human
Procedure: as §1, with “Cells were incubated with the reconstituted β-amyloid1-42 for 48 hours and cell viability was then assayed by the reduction of 3-(4,5-dimethylthiazole-2-yl)-2,5-diphenyltetrazolium bromide (MTT), as previously described in Miller et al., Brain Res. 963:43-56 (2003), which is hereby incorporated by reference in its entirety. The effects of H2O2 (10-30 μM) on cell viability were assayed in a similar manner (Tamagno et al., Exp Neurol 180:144-155 (2003), which is hereby incorporated by reference in its entirety).” left out, “(+/-SD).” for “(+/−SD).”, “0.05. SH-SY5Y cells, treated with and without β-amyloid1-42 for 48 hours, were lysed by freeze/thawing using liquid nitrogen in a 0.25 M sucrose solution containing 1 mM dithiothreitol, 1 μg/ml aprotinin, 1 μg/ml leupeptin and 100 μM phenylmethylsulfonyl fluoride. […]” for “0.05.”

[7] = tested on: SH-SY5Y cells; test: Nuclear condensation or blebbing apoptosis assay; format: cell-based, human; conditions: 5 μM β-amyloid1-42, 48 hours; compared to control cells
From the text: Construction of the pcDNA3 Myc-tagged vector used herein has been described in Tu et al., J. Biol. Chem. 278:49293-49300 (2003), which is hereby incorporated by reference in its entirety. Insertion of the TGase cDNA into the vector was accomplished by performing BamHI and EcoRI restriction-site digestion of the previously generated pTRE TGase (wild-type) vector (Antonyak et al., J. Biol. Chem. 276:33582-33587 (2001), which is hereby incorporated by reference in its entirety) to excise the cDNA encoding wild-type TGase, followed by subcloning it into the pcDNA3 Myc-tagged vector using T4 DNA ligase (Invitrogen, Carlsbad, Calif.). The pcDNA3-Myc-TGase vector was used to generate the transamidation-defective (C277V) mutant with the Quikchange site-directed mutagenesis kit (Stratagene, La Jolla, Calif.). Each TGase construct was sequenced to confirm the presence or absence of the mutation. […]
Immunofluorescence was also performed 48 hours after transient transfections with TGase constructs. […] Cells expressing the various TGase constructs were counted from three separate experiments (over 100 cells from each slide were scored) after β-amyloid1-42 treatment and the apoptotic rate was assessed relative to the percentage of apoptosis for untreated (transfected) cells. […]

[8] = H2O2 20 μM, 24 hours, RA-differentiated SH-SY5Y
[9] = 2.5-10 μM β-amyloid1-42, 48 hours

**Q.** OO [H2O2, hydrogen peroxide] was tested. Which “reduction of cell viability” value [1, 8] did it give?
**A.** The value was 30-40%.

**Q.** What about the caspase activation ([2]; 30 μM H2O2, 24 hours, RA-differentiated SH-SY5Y) of the same compound?
**A.** Its caspase activation is “resulted in caspase activation”.

**Q.** And the cytosolic transamidation activity ([3]; H2O2, 24 hours)?
**A.** Its cytosolic transamidation activity is “significant increase”.

**Q.** With CN(C)c1cccc2c(S(=O)(=O)NCCCCCN)cccc12 [MDC, monodansyl cadaverine] as the compound, how does the “difference in cell viability in the presence or absence of MDC, 5 μM BA” value ([1]; 25 μM MDC, 5 μM BA, 48 hours, p=0.027) read?
**A.** The value was “significant difference”.

**Q.** And the “difference in cell viability in the presence or absence of MDC, 10 μM BA” value ([1]; 25 μM MDC, 10 μM BA, 48 hours, p=0.022)?
**A.** Its value is “significant difference”.

**Q.** What about the “effect of MDC on H2O2-induced cytotoxicity” value [1, 8] of the same compound?
**A.** The value was “greatly enhanced cytotoxicity”.

**Q.** And the “effect of MDC on β-amyloid1-42 activation of caspases” value ([2]; β-amyloid1-42-treated cells)?
**A.** Its value is “did not block”.

**Q.** And the “effect of MDC on β-amyloid1-42 stimulation of c-Jun kinase (JNK) activity” value [4]?
**A.** Its value is “did not block”.

**Q.** And the “TGase-catalyzed oligomerization (transamidation) of β-amyloid1-42” value ([5]; 50 μM MDC, 0.1 μg TGase, 1 μg BA, 500 μM Ca2+, 60 minutes)?
**A.** The value was “completely eliminated”.

**Q.** With CC1=C(/C=C/C(C)=C/C=C/C(C)=C/C(=O)O)C(C)(C)CCC1 [RA, all-trans-retinoic acid] as the compound, how does the TGase expression ([6]; 20 μM RA, SH-SY5Y in low serum media) read?
**A.** The TGase expression was “significant up-regulation”.

**Q.** How did the “apoptotic response read out by caspase-3 activation” value ([2]; oligomeric β-amyloid1-42, 37° C.) turn out when “β-amyloid1-42: most abundant and naturally occurring form of β-amyloid; HPLC-purified from American Peptide” was run?
**A.** Its value is “induced an apoptotic response”.

**Q.** What about the “production of BPA conjugates (transamidation activity) in the membrane/particulate fractions” value [3, 9] of the same compound?
**A.** Its value is “marked enhancement”.

**Q.** What about the “percentage of cells undergoing apoptosis” value [7] of the same compound?
**A.** The value was “increased”.

**Q.** What about the “transamidation substrate for TGase in vitro” value ([5]; Ca2+ levels below 1 mM) of the same compound?
**A.** The value was “effective transamidation substrate”.

**Q.** And the “levels of TGase in the membrane/particulate fractions” value [6, 9]?
**A.** Its value is “dramatically increased”.

**Q.** And the TGase expression ([6]; β-amyloid1-42 48 hours, absence or presence of RA)?
**A.** The TGase expression was “no effect”.
